Values of other authors in US6652882B1, “Controlled release formulation containing bupropion” (Intellipharmaceutics Corp, priority 1997, dated 2003).

Assays:
[1] = during storage
[2] = oral administration; mammals such as rats and dogs

In the case of CC(NC(C)(C)C)C(=O)c1cccc(Cl)c1 (racemic) [Bupropion, (±)-2-(tert-butylamino)3′-chloropropiophenone], the stability on storage [1] is given as “subject to hydrolytic decomposition during storage” and the absolute bioavailability [2] is given as 5% to 20.
